Tests used:
Swiss mice = assay: Fat tolerance test (ftt) in mice; assay type: in vivo; conditions: 3 mg/kg p.o., olive oil load 10 ml/kg p.o., reduction in AUC0-4h, vehicle group as 100%
Protocol: Study Protocol for Screening of Compounds for Fat Tolerance Test (ftt) in Mice
Swiss mice of age 4-5 weeks and body weight between 25-30 g were selected for study. After overnight fasting, animals were divided into three groups based on plasma triglyceride level with same mean and variation Animals were administered with either vehicle (1% Tween 80 in 0.5% carboxy methylcellulose) or with compounds of the present invention (3 mg/kg, p.o.). Compounds of the present invention were prepared as suspension in 0.5% carboxy methylcellulose (CMC) with 1% Tween 80. 30 minutes after the treatment, olive oil load (10 ml/kg, p.o.) was given. Blood samples were collected at 1, 2, 3 and 4 h after the fat (olive oil) load. Plasma was separated and triglyceride level was measured using commercially available kits (Diasys, Germany). Percentage reduction in area under curve (AUC0-4h) of the test compound was calculated by taking AUC0-4h of the vehicle group as 100%.

hDGAT-1 = molecular target: T1, hDGAT-1 (Homo sapiens, UniProt O75907); assay: In-vitro DGAT-1 assay (14C oleoyl CoA, microsomes from Sf9 cells); assay type: biochemical; conditions: 1 μM compound; hDGAT-1 containing microsomes from Sf9 cells
T1 construct: host or cells: Sf9 insect cells (baculovirus); microsomal fraction
T1 sequence (O75907 1-488): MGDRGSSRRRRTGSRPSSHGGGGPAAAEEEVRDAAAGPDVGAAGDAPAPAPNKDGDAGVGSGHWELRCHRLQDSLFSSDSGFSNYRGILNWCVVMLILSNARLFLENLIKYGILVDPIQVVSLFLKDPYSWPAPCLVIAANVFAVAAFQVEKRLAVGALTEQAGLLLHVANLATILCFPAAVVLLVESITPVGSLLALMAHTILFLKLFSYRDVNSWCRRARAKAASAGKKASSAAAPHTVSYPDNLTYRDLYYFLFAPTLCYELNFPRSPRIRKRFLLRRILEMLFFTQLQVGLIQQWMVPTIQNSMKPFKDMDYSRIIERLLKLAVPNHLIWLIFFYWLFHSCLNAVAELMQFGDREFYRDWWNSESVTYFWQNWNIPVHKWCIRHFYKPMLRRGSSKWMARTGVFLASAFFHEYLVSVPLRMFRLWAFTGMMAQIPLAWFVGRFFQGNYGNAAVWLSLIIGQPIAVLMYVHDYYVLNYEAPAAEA
Protocol: In-Vitro Protocol for DGAT-1 Assay
Sf9 Culture and Treatment
Sf9 cells were grown in T25 flasks containing Graces's Insect media (Invitrogen, US) with 10% FBS (Hyclone, US) with antibiotic (100 units/mL penicillin, 100 μg/mL streptomycin sulphate, 0.25 μg/mL amphotericin B as Fungizone) grown in a 27° C. incubator.
hDGAT-10RF expression clone (RZPDo839C09146 in pDEST vector) was obtained from RZPD, Germany. hDGAT-1 bacmid DNA was obtained by transformation of the hDGAT expression clone into DH10Bac E. coli competent cells. Approximately 1 μg of hDGAT-1 bacmid DNA was infected into Sf9 cells with Cellfectin (Invitrogen, US) reagent. Following infection, Sf9 cells were incubated at 27° C. for 30 minutes. Five hours after infection, the media was replaced with growth media containing antibiotic (100 units/mL penicillin, 100 μg/mL streptomycin sulphate, 0.25 μg/mL amphotericin B as Fungizone) and incubated at 27° C. for 72 hours. The supernatant containing the virus was centrifuged at 1500 g for 5 minutes, passed through 0.22 μm filter, and subsequently stored at 4° C. The virus was further amplified three more times by re-infection of Sf9 cells and the viral titer was determined by plaque assay.
Preparation of DGAT-1 Microsomes from Sf9 Cells
Sf9 cells were seeded in spinner flasks on day 0 at a cell density of 1×10^6 and infected on day 1 with hDGAT-1 baculovirus at a multiplicity of infection (MOI) of 5 and a cell density of 2×10^6. On day 3 (or 66-72 hours), cells were harvested and centrifuged at 2500 g for 10 minutes. Pellet was resuspended in lysis buffer (100 mM sucrose, 50 mM KCl, 40 mM KH2PO4, 30 mM EDTA, pH 7.2) and passed through 21-gauge needle approximately 10 times. […] The supernatant was subjected to centrifugation at 35,000 rpm in a Beckman Ti-45 rotor at 4° C. for 1 hour. The resultant pellet containing the microsomes were resuspended overnight in 1 mL of lysis buffer and total protein concentration was estimated using Bradford Reagent (Sigma, US). Microsomes were aliquoted and stored at −80° C.
Measurement of DGAT-1 Activity
Frozen aliquots of hDGAT-1 containing microsomes were thawed (5-10 mg/mL total protein) on ice and diluted to a working stock of 1 mg/mL with DGAT Assay Buffer (DAB).
The assay was performed in duplicates in a reaction volume of 100 μL. […] Procedure:
The reaction was started by the addition of […] of 1 mg/mL of microsomes (iv) to the mixture and incubated at 37° C. for 10 minutes. […] The mixture was vortexed and the triglycerides formed were extracted into the organic heptane phase.

Compound	% Reduction (Plasma triglyceride) (Swiss mice)	% inhibition of hDGAT-1 at 1 μM (hDGAT-1)	inhibition at 1 µM (hDGAT-1) [%]
CC(C)C(NC(=O)c1ncc(-c2ccc(NC(=O)Nc3ccccc3Oc3ccccc3)cc2)s1)C(=O)O (centres unmarked) [Example 16, 3-methyl-2-(5-(4-(3-(2-phenoxyphenyl)ureido)phenyl)thiazole-2-carboxamido)butanoic acid]	++ (>50% Reduction ≦100)	–	–
2-(5-(4-(3-(3,4-dimethylphenyl)ureido)phenyl)oxazole-2-carboxamido)-3-methylbutanoic acid [Example 14]	++ (>50% Reduction ≦100)	++ (>50% Inhibition ≦100)	–
CC(C)C(NC(=O)c1ncc(-c2ccc(NC(=O)Nc3ccccc3Cl)cc2)o1)C(=O)O (centres unmarked) [Example 4, 2-(5-(4-(3-(2-Chlorophenyl)ureido)phenyl)oxazole-2-carboxamido)-3-methylbutanoic acid]	+ (>0% Reduction ≦50)	–	50 to 100
CC(C)C(NC(=O)c1ncc(-c2ccc(Nc3nc4ccc(F)cc4s3)cc2)s1)C(=O)O (centres unmarked) [Example 20, 2-(5-(4-(6-fluorobenzo[d]thiazol-2-ylamino)phenyl)thiazole-2-carboxamido)-3-methylbutanoic acid]	++ (>50% Reduction ≦100)	–	–
CC(C)C(NC(=O)c1ncc(-c2ccc(NC(=O)c3ccc(C(C)(C)C)cc3)cc2)s1)C(=O)O (centres unmarked) [Example 22, 2-(5-(4-(4-tert-butylbenzamido)phenyl)thiazole-2-carboxamido)-3-methylbutanoic acid]	++ (>50% Reduction ≦100)	–	–
CC(C)C(NC(=O)c1ncc(-c2ccc(NC(=O)Nc3ccccc3Cl)cc2)s1)C(=O)O (centres unmarked) [Example 12, 2-(5-(4-(3-(2-Chlorophenyl)ureido)phenyl)thiazole-2-carboxamido)-3-methylbutanoic acid]	++ (>50% Reduction ≦100)	–	–
CC(C)C(NC(=O)c1ncc(-c2ccc(NC(=O)Nc3ccc(Cl)cc3Oc3ccccc3)cc2)s1)C(=O)O (centres unmarked) [Example 18, 2-(5-(4-(3-(4-chloro-2-phenoxyphenyl)ureido)phenyl)thiazole-2-carboxamido)-3-methylbutanoic acid]	++ (>50% Reduction ≦100)	–	–
CC(C)C(NC(=O)c1ncc(-c2ccc(NC(=O)Nc3cccc(C(F)(F)F)c3)cc2)s1)C(=O)O (centres unmarked) [Example 10, 3-methyl-2-(5-(4-(3-(3-(trifluoromethyl)phenyl)ureido)phenyl)thiazole-2-carboxamido)butanoic acid]	++ (>50% Reduction ≦100)	–	–
CC(C)C(NC(=O)c1nc(-c2ccc(NC(=O)c3ccc(-c4ccccc4)cc3)cc2)cs1)C(=O)O (centres unmarked) [Example 36, 2-(4-(4-Biphenyl-4-ylcarboxamidophenyl)thiazole-2-carboxamido)-3-methylbutanoic acid]	–	+ (>0% Inhibition ≦50)	–
